Like-named read-outs stand apart in the source and are kept apart here.
Columns and labels:
[1] = test system: PHTX-132Lu non-small cell lung xenograft
From the text: The PHTX-132Lu non-small cell lung xenograft model was established from a patient-derived tumor collected during surgery from a person with lung cancer (Poorly Differentiated Adenocarcinoma). PHTX-132Lu tumor fragments (approximately 2×2×3 mm^3) are implanted into the subcutaneous space in the right dorsal flank of female CB-17 SCID mice (age 10 weeks, Charles River Laboratory, Wilmington, Mass.) using a 13-gauge trocar. When the mean tumor volume reached approximately 220 mm^3, the animals were randomized into 12 treatment groups (n=5/group).
(§1) Carboplatin (Teva Pharmaceuticals) is formulated in 0.9% saline and administered by IP injection once weekly (QW) at 25, 50, 60, and 75 mg/kg. The once weekly schedule is also described as every 7 days (Q7D).
(§2) Compound 1 [((1R,2R,3S,4R)-2,3-dihydroxy-4-(2-(3-(trifluoromethylthio)-phenyl)pyrazolo[1,5-a]pyrimidin-7-ylamino)cyclopentyl)methyl sulfamate] is formulated in 10-20% HPbCD in sterile water and administered intravenously (IV) or subcutaneously (SC) on a BIW (twice/week schedule; Monday and Thursday or Tuesday and Friday) for either 2-4 weeks.
(§3) Tumors were measured twice weekly using vernier calipers. Tumor volumes were calculated using the standard formula V=W^2×L/2,). When mean tumor volumes reached approximately 200 mm^3 for PHTX-24C, 220 mm^3 for PHTX-Lu132, 150 mm^3 for CTG-0256, 260 mm^3 for CTG-0486, 185 mm^3 for PHTX-17C, 260 mm^3 for CTG-0165, 150 mm^3 for PHTX-14B in the study of Compound 1 and paclitaxel, 180 mm^3 for PHTX-14B in the study of Compound 1 and docetaxel, 200 mm^3 for SKOV-3, 220 mm^3 for PHTX-02B in the study of Compound 1 and docetaxel, 250 mm^3 for PHTX-02B in the study of Compound 1 and paclitaxel, 195 mm^3 for CTG-0159, 180 mm^3 for CTG-0012 or 150 mm^3 for Calu-6, mice were randomized into groups of n=5-7/arm as described in the tables below, and injected with vehicle, Compound 1 or agents (docetaxel, paclitaxel, oxaliplatin, cisplatin or carboplatin), or the combination of Compound 1 plus one of the agents, at various doses and schedules as described in tables below. Tumor size and body weight were measured approximately twice a week for the duration of the study. Mice are euthanized when their tumor volume reached 10% of their body weight, or when the average tumor volume of a treatment or control group reached approximately 2000 mm^3. Tumor growth continued to be monitored after the dosing period in some studies. Average tumor volume is reported as a function of time for selected arms of selected studies in the Figures.
(§4) Measurements from day 0 to day 14, day 19, day 21, or day 28 are analyzed as specified in Tables below. All tumor volumes have a value of 1 added to them before log10 transformation. For each animal, the log tumor volume at day 0 is subtracted from the log tumor volume on the subsequent days. This difference vs. time is used to calculate an area under the curve (AUC) for each animal using the trapezoid rule. […] The synergy score for the combination of agents A and B is defined as
(§5) 100*(mean(AUCAB)−mean(AUCA)−mean(AUCB)+mean(AUCctl))/mean(AUCctl):
(§6) where AUCAB, AUCA, AUCB, and AUCctl are the AUC values for animals in the combination group, the A group, the B group, and the control group, respectively. The standard error of the synergy score is computed based on the variation in the AUC values among the animals. […] If the P-value is above 0.05, then the combination is considered to be additive. If the P-value is below 0.05, and the synergy score is less than zero, then the combination is considered to be synergistic.

[2] = test system: SKOV-3 ovarian cell-line derived xenograft; assay: SKOV-3 xenograft model, Compound 1 and carboplatin; format: in vivo, nude mice; conditions: for Tumor Volume Day 14: in mm³ (unit assumed)
Method: SKOV-3 is an ovarian cell-line derived xenograft. Ten week old female nude mice (Taconic Farms, Inc) were inoculated subcutaneously in flank (cell suspension) with 4.0×10^6 SKOV-3 cells suspended in serum free DMEM+Matrigel. When the mean tumor volume reached approximately 200 mm^3, the animals were randomized into 12 treatment groups (n=5/group).
as §1, §2, §3, §4, §5, §6

[3] = test system: CTG-0256 human ovarian xenograft; assay: CTG-0256 xenograft model, Compound 1 and carboplatin; format: in vivo, Mus musculus/nu/nu mice
From the text: The CTG-0256 model of human ovarian xenograft model was established from a patient-derived tumor collected during surgery at primary site from a person with ovarian cancer (serous adenocarcinoma with resistant response to carboplatin or paclitaxel). CTG-0256 tumor fragments (approximately 2×2×3 mm^3) were implanted into the subcutaneous space in the right dorsal flank of female Mus musculus/nu/nu mice (age 6-9 weeks, Harlan Laboratories, Madison, Wis.) using a 13-gauge trocar. When the mean tumor volume reached approximately 150 mm^3, the animals were randomized into 7 treatment groups (n=7/group).
as §1, §2, §3, §4, §5, §6

[4] = test system: CTG-0486 human ovarian xenograft; format: in vivo
From the text: The CTG-0486 model of human ovarian xenograft model was established from a patient-derived tumor collected during surgery from a person with ovarian cancer (serous adenocarcinoma, metastases to the small bowel). CTG-0486 tumor fragments (approximately 2×2×3 mm^3) are implanted into the subcutaneous space in the right dorsal flank of female Mus musculus/nu/nu mice (age 6-9 weeks, Harlan Laboratories, Madison, Wis., USA) using a 13-gauge trocar needle. When the mean tumor volume reached approximately 260 mm3, the animals were randomized into 8 treatment groups (n=5/group).
[…] The once weekly schedule is also described as every 7 days (Q7D).
as §2, §3, §4, §5, §6

[5] = test system: CTG-0165 human lung NSCLC xenograft; assay: CTG-0165 xenograft model, Compound 1 and cisplatin; format: in vivo, Mus musculus/nu/nu mice
Method: CTG-0165 tumor fragments (approximately 2×2×3 mm^3) were implanted into the subcutaneous space in the right dorsal flank of female Mus musculus/nu/nu mice (age 6-9 weeks, Harlan Laboratories, Madison, Wis., USA) using a 13-gauge trocar. When the mean tumor volume reached approximately 260 mm^3, the animals were randomized into 8 treatment groups (n=5/group).
Cisplatin (Teva Pharmaceuticals) is formulated in 0.9% saline and administered by IV injection once weekly (QW) at 7.5 mg/kg. The once weekly schedule is also described as every 7 days (Q7D).
as §2, §3, §4, §5, §6

[6] = test system: PHTX-02B breast xenograft; assay: PHTX-02B xenograft model, Compound 1 and docetaxel; format: in vivo, SCID-NOD mice; conditions: for Tumor Volume Day 21: in mm³ (unit assumed)
Method: (§7) Docetaxel (Henry Schein, Inc., Pittsburgh Pa.) is formulated in 0.9% saline and administered by intravenous injection (IV) once weekly (QW) at 5 mg/kg or 10 mg/kg. […] Tumors were measured twice weekly using vernier calipers.

[7] = test system: Calu-6 non-small cell lung cancer xenograft; assay: Calu-6 xenograft model, Compound 1 and docetaxel; format: in vivo, nude mice; conditions: for Tumor Volume Day 21: in mm³ (unit assumed)
Method: Calu-6 is a non-small cell lung cancer cell-lined derived xenograft model. Nine week old female nude mice (Taconic Farms, Inc) were inoculated subcutaneously in the flank (cell suspension) with 4.0×10^6 Calu-6 cells suspended in serum free MEM. […] Docetaxel (Henry Schein, Inc., Pittsburgh Pa.) is formulated in 0.9% saline and administered by intravenous injection (IV) once weekly (QW) at 5 mg/kg or 10 mg/kg. […] Tumors were measured twice weekly using vernier calipers.

[8] = test system: PHTX-14B breast xenograft; assay: PHTX-14B xenograft model, Compound 1 and docetaxel; format: in vivo, nude mice; conditions: for Tumor Volume Day 28: in mm³ (unit assumed)
Method: as §7

[9] = test system: CTG-0159 human lung NSCLC xenograft; assay: CTG-0159 xenograft model, Compound 1 and docetaxel; format: in vivo, Mus musculus/nu/nu mice; conditions: 10 mg/kg docetaxel QWx3 IV; in mm³ (unit assumed)
Method: as §7

PHTX-24C colon xenograft = assay: PHTX-24C xenograft model, Compound 1 and oxaliplatin; format: in vivo, CB-17 SCID mice
Method: (§8) Oxaliplatin (Jiang Su Geng Rui Pharmaceuticals, Inc.) is formulated in 0.9% saline and administered by IP injection once weekly (QW) at 7.5 or 12.5 mg/kg. The once weekly schedule is also described as every 7 days (Q7D).
as §2, §3, §4, §5
where AUCAB, AUCA, AUCB, and AUCctl are the AUC values for animals in the combination group, the A group, the B group, and the control group, respectively. […]

[10] = test system: PHTX-17C colorectal carcinoma xenograft; format: in vivo; conditions: for Tumor Volume Day 21: in mm³ (unit assumed)
From the text: The PHTX-17C colorectal carcinoma xenograft model was established from a patient-derived tumor collected during surgery from a person with moderately differentiated adenocarcinoma.PHTX-17C tumor fragments (approximately 2×2×3 mm^3) were implanted into the subcutaneous space in the right dorsal flank of female nude mice (age 5-7 weeks, Balb/c Nude Mice, Shanghai SINO-British SIPPR/BK Lab Animal Ltd, Shanghai, China) using a 13-gauge trocar. When the mean tumor volume reached approximately 185 mm^3, the animals were randomized into 12 treatment groups (n=5/group).
as §8, §2, §3, §4, §5, §6

[11] = test system: PHTX-02B breast xenograft; assay: PHTX-02B xenograft model, Compound 1 and paclitaxel; format: in vivo, SCID-NOD mice; conditions: for Tumor Volume Day 19: in mm³ (unit assumed)
Method: (§9) Paclitaxel (Bristol-Myers Squibb Company) is formulated in 0.9% saline and administered by intravenous injection (IV) on every 4 days (Q4D) or once weekly (QW) at 10 and 20 mg/kg. […] Tumors were measured twice weekly using vernier calipers.

[12] = test system: PHTX-14B breast xenograft; assay: PHTX-14B xenograft model, Compound 1 and paclitaxel; format: in vivo, Balb/c Nude Mice; conditions: for Tumor Volume Day 28: in mm³ (unit assumed)
Method: as §9

[13] = test system: CTG-0012 human primary triple negative breast cancer model; assay: CTG-0012 xenograft model, Compound 1 and paclitaxel; format: in vivo, Mus musculus/nu/nu mice
Method: as §9

[14] = single agent docetaxel 5 and 10 mg/kg IV QW
[15] = single agent paclitaxel IV at 10 mg/kg Q4D for 3 weeks

N.N.O=C([O-])C1(C(=O)[O-])CCC1.[Pt+2] [carboplatin, reference compound]
Tumor Volume Day 21 ([1]; 25 mg/kg carboplatin Q7Dx3 IP, in mm³ (unit assumed)): 727 | tolerability ([1]; 75 mg/kg carboplatin Q7D×3 as single agent (study group 2)): not tolerated | anti-tumor activity compared to vehicle control ([1]; single agent carboplatin 25 mg/kg IP Q7D): modest anti-tumor activity | Tumor Volume Day 14 ([2]; 25 mg/kg carboplatin Q7Dx2 IP): 932.8 | Tumor Volume Day 14 ([2]; 75 mg/kg carboplatin Q7Dx2 IP): 798.5 | anti-tumor activity compared to vehicle control ([2]; single agent carboplatin 25 and 75 mg/kg IP Q7D): modest anti-tumor activity | Volume Tumor Day 14 ([3]; 50 mg/kg carboplatin Q7Dx2 IP, in mm³ (unit assumed)): 1898.1 | anti-tumor activity compared to vehicle control ([3]; single agent carboplatin IP at 50 mg/kg Q7D): modest to weak anti-tumor activity | Tumor Volume Day 21 ([4]; 60 mg/kg carboplatin Q7Dx3 IV, in mm³ (unit assumed)): 400.6 | anti-tumor activity compared to vehicle control ([4]; single agent carboplatin IP at 60 mg/kg Q7D for 3 weeks): modest to strong anti-tumor activity

N.N.[Cl][Pt][Cl] [cisplatin, reference compound]
Tumor Volume Day 21 ([5]; 7.5 mg/kg cisplatin QWx3 IV, in mm³ (unit assumed)): 489.3 | anti-tumor activity compared to vehicle control ([5]; single agent cisplatin 7.5 mg/kg Q7D): modest to weak anti-tumor activity

CC(=O)O[C@@]12CO[C@@H]1C[C@H](O)[C@@]1(C)C(=O)[C@H](O)C3=C(C)[C@@H](OC(=O)[C@H](O)[C@@H](NC(=O)OC(C)(C)C)c4ccccc4)C[C@@](O)([C@@H](OC(=O)c4ccccc4)[C@H]21)C3(C)C [docetaxel, reference compound]
Tumor Volume Day 21 ([6]; 5 mg/kg docetaxel Q7Dx3 IV): 492.3 | Tumor Volume Day 21 ([6]; 10 mg/kg docetaxel Q7Dx3 IV): 232.2 | tumor growth compared to the vehicle control group [6, 14]: inhibited tumor growth | Tumor Volume Day 21 ([7]; 5 mg/kg docetaxel Q7Dx3 IV): 743.7 | Tumor Volume Day 21 ([7]; 10 mg/kg docetaxel Q7Dx3 IV): 882.6 | anti-tumor responses compared to the vehicle control [7, 14]: modest anti-tumor responses | Tumor Volume Day 28 ([8]; 5 mg/kg docetaxel Q7Dx3 IV): 590.4 | Tumor Volume Day 28 ([8]; 10 mg/kg docetaxel Q7Dx3 IV): 195.5 | tumor growth compared to the vehicle control group [8, 14]: inhibited tumor growth | Tumor Volume Day 21 [9]: 103.2

O=C1[O][Pt]2([NH][C@@H]3CCCC[C@H]3[NH]2)[O]C1=O [oxaliplatin, reference compound]
Tumor Volume Day 21 (PHTX-24C colon xenograft; 7.5 mg/kg oxaliplatin Q7Dx2 IP, in mm³ (unit assumed)): 720.6 | anti-tumor activity compared to vehicle control (PHTX-24C colon xenograft; single agent oxaliplatin 7.5 mg/kg IP Q7D): modest anti-tumor activity | Tumor Volume Day 21 ([10]; 7.5 mg/kg oxaliplatin Q7Dx3 IP): 2017.5 | Tumor Volume Day 21 ([10]; 12.5 mg/kg oxaliplatin Q7Dx3 IP): 1758.9 | anti-tumor activity compared to vehicle control ([10]; single agent oxaliplatin IP at 7.5 or 12.5 mg/kg Q7D): modest anti-tumor activity

CC(=O)O[C@H]1C(=O)[C@@]2(C)[C@H]([C@H](OC(=O)c3ccccc3)[C@]3(O)C[C@H](OC(=O)[C@H](O)[C@@H](NC(=O)c4ccccc4)c4ccccc4)C(C)=C1C3(C)C)[C@]1(OC(C)=O)CO[C@@H]1C[C@@H]2O [paclitaxel, reference compound]
Tumor Volume Day 19 ([11]; 10 mg/kg paclitaxel Q4Dx3 IV): 1093.5 | Tumor Volume Day 19 ([11]; 20 mg/kg paclitaxel Q4Dx3 IV): 245.2 | anti-tumor activity ([11]; paclitaxel IV at 20 mg/kg Q4D for 3 weeks): strong anti-tumor activity | anti-tumor activity compared to vehicle control [11, 15]: minimal to modest anti-tumor activity | Tumor Volume Day 28 ([12]; 10 mg/kg paclitaxel Q7Dx4 IV): 584.4 | Tumor Volume Day 28 ([12]; 20 mg/kg paclitaxel Q7Dx4 IV): 283.6 | anti-tumor activity ([12]; paclitaxel 20 mg/kg IV Q7D for 4 weeks): strong anti-tumor activity | anti-tumor activity compared to vehicle control ([12]; single agent paclitaxel 10 mg/kg IV Q7D for 4 weeks): modest anti-tumor activity | Tumor Volume Day 21 ([13]; 10 mg/kg paclitaxel Q4Dx3 IV, in mm³ (unit assumed)): 731.1 | anti-tumor activity compared to vehicle control [13, 15]: modest to strong anti-tumor activity

Source: US20180133221A1, “ADMINISTRATION OF UBIQUITIN-ACTIVATING ENZYME INHIBITOR AND CHEMOTHERAPEUTIC AGENTS” (Millennium Pharmaceuticals, Inc., priority 2014, published 2018)
